Test results as given in patent publication US20230317203A1, “SCREENING METHOD” (University of Leeds, priority 2022, published 2023).

Target: BRISC (Homo sapiens, UniProt P46736+Q15018+Q9NXR7)
Assay: IQF K63-linked diUb DUB activity assay, BRISC
Type: biochemical
Design: made in house; host or cells: Spodoptera frugiperda (Sf9) insect cells
Details: IQF assay, fluorescent di-ubiquitin substrate, FIG. 1F
Description: BRISC complexes were tested for activity in DUB reaction buffer containing 50 mM HEPES-NaOH pH 7.0, 100 mM NaCl, 0.1 mg/mL BSA, 1 mM DTT, and 0.003% Brij-35. […] Inhibitors were assayed at concentrations up to 200 μM. 20 μL enzyme reactions were carried out in 384-well black flat-bottom low flange plates (Corning; 35373). DUB activity was measured using internally quenched fluorescent (IQF) K63-linked diUb (Lifesensors, catalogue number: DU6303) at 50 or 100 nM. Cleaved diUb was monitored by measuring fluorescence intensity (Ex. 540 nm, Em. 580 nm; dichroic mirror 560 nm). Fluorescence intensity was measured every minute for 30 minutes at 30° C. Fluorescence intensity units for the first 10 minutes were plotted against time to generate a linear reaction progress curve, where the initial velocity (v0) corresponds to the gradient of the curve. IC50 values were calculated using the GraphPad Prism (v8.0) built-in dose-response equation for inhibitor concentration vs. response (variable slope).
A high throughput biochemical screen was designed to identify inhibitors of BRISC, based on the ability of small molecules to inhibit BRISC cleavage of a K63-linked di-ubiquitin substrate. The di-ubiquitin substrate is designed with a fluorescent TAMRA dye on the proximal ubiquitin moiety and fluorescence quencher on the distal ubiquitin molecule (FIG. 1A). Upon isopeptidase bond cleavage, fluorescence is detected, enabling continuous fluorescent readout of deubiquitylase activity over time (FIG. 1A). The assay conditions were optimised and used to test an in-house compound library comprising of ˜300 published and custom-made kinase inhibitors. From this screen, two hits were identified, compounds AT7519 (well H20) and YM201636 (well P12) (FIG. 1B). The specificity of these compounds was assessed against the broad-spectrum DUB ubiquitin-specific protease-2 (USP2) and the serine protease trypsin which cleave K63-Ub substrate under the same conditions. […] UV-Vis spectroscopy analyses of the compound in well H20 used in the screen compared to the Synkinase and Sellechem AT7519 compounds identified an additional peak in the H20 spectra (FIG. 5C). […] The synthesis of the two isomers was confirmed using mass spectrometry fragmentation analyses (FIG. 5E) and the inhibitory effect of the isomers was tested against BRISC.

IC50 compared to JMS-175-2: slightly improved
Compound: O=C(NC1C2CNCC21)c1nn(C(=O)c2c(Cl)cccc2Cl)cc1NC(=O)c1c(Cl)cccc1Cl (stereo not shown) [FX-171-C]
